Experimental data as given in patent US10709706B2, “Nuclear transport modulators and uses thereof” (Karyopharm Therapeutics Inc., priority 2015, dated 2020).

Columns and labels:
Assay type in all cases: cell-based
MM1S cells = assay: MTT cell proliferation assay, MM1S cells; conditions: Homo sapiens, MM1.S, MM1S multiple myeloma cells, approximately 64-72 hours, 1 nM to 30 μM
Method: (§1) The MTT cell proliferation assay was used to study the cytotoxic properties of the compounds. The assay was performed according to the method described by Roche Molecular Biochemicals, with minor modifications. The assay is based on the cleavage of the tetrazolium salt, MTT, in the presence of an electron-coupling reagent. The water-insoluble formazan salt produced must be solubilized in an additional step. Cells grown in a 96-well tissue culture plate were incubated with the MTT solution for approximately 4 hours. After this incubation period, a water-insoluble formazan dye formed. After solubilization, the formazan dye was quantitated using a scanning multi-well spectrophotometer (ELISA reader). […] The cells were seeded at 5,000-10,000 cells in each well of 96-well plate in 100 μL of fresh culture medium and were allowed to attach overnight. The stock solutions of the compounds were diluted in 100 μL cell culture medium to obtain eight concentrations of each test compound, ranging from 1 nM to 30 μM. […] All optical densities were measured at 490 nm using a Vmax Kinetic Microplate Reader (Molecular Devices). In most cases, the assay was performed in duplicate and the results were presented as a mean percent inhibition to the negative control±SE. The following formula was used to calculate the percent of inhibition: Inhibition (%)=(1−(ODo/OD))×100.
(§2) The compounds were tested against Z138, MM1S and 3T3 cells. The Z138 cell line is a mature B-cell acute lymphoblastic leukemia cell line derived from a patient with chronic lymphocytic leukemia. The MM1S cell line was established from the peripheral blood of a human multiple myeloma patient. 3T3 cells are standard fibroblast cells; they were originally isolated from Swiss mouse embryo tissue.

Z138 cells = assay: MTT cell proliferation assay, Z138 cells; conditions: Homo sapiens, Z-138, approximately 64-72 hours, 1 nM to 30 μM
Method: as §1, §2

3T3 cells = assay: MTT cell proliferation assay, 3T3 cells; conditions: Mus musculus, NIH3T3, 3T3 fibroblast cells, approximately 64-72 hours, 1 nM to 30 μM
Method: as §1, §2

Structure (SMILES)	IC50 (MM1S cells)	IC50 (Z138 cells)	IC50 (3T3 cells)
NC(=O)/C(=C/c1ccnc(-c2cc(C(F)(F)F)cc(C(F)(F)F)c2)n1)c1cncc(F)c1 [Compound 121, (E)-3-(2-(3,5-bis(trifluoromethyl)phenyl)pyrimidin-4-yl)-2-(5-fluoropyridin-3-yl)acrylamide]	0.1 to 5 µM	> 30 µM	> 30 µM
NC(=O)/C(=C/c1ccnc(-c2cc(C(F)(F)F)cc(C(F)(F)F)c2)n1)c1ccc(N2CCOCC2)cc1 [Compound 165, (E)-3-(2-(3,5-bis(trifluoromethyl)phenyl)pyrimidin-4-yl)-2-(4-morpholinophenyl)acrylamide]	> 30 µM	> 30 µM	> 30 µM
NC(=O)/C(=C\c1ccnc(-c2cc(C(F)(F)F)cc(C(F)(F)F)c2)n1)c1cncnc1 [Compound 107, (Z)-3-(2-(3,5-bis(trifluoromethyl)phenyl)pyrimidin-4-yl)-2-(pyrimidin-5-yl)acrylamide]	0.1 to 5 µM	5 to 30 µM	> 30 µM
NC(=O)/C(=C/c1ccnc(-c2cc(C(F)(F)F)cc(C(F)(F)F)c2)n1)c1ccc(OC(F)(F)F)cc1 [Compound 134, (E)-3-(2-(3,5-bis(trifluoromethyl)phenyl)pyrimidin-4-yl)-2-(4-(trifluoromethoxy)phenyl)acrylamide]	> 30 µM	> 30 µM	> 30 µM
NC(=O)/C(=C/c1ccnc(-c2cc(C(F)(F)F)cc(C(F)(F)F)c2)n1)c1cccc(S(=O)(=O)N2CCC(F)CC2)c1 [Compound 131, (E)-3-(2-(3,5-bis(trifluoromethyl)phenyl)pyrimidin-4-yl)-2-(3-((4-fluoropiperidin-1-yl)sulfonyl)phenyl)acrylamide]	> 30 µM	> 30 µM	> 30 µM

Further lines, with some results ahead:

IC50 (MM1S cells)	Structure (SMILES)	IC50 (Z138 cells)	IC50 (3T3 cells)
5 to 30 µM	COC(=O)/C(Br)=C\c1nccc(-c2cc(C(F)(F)F)cc(C(F)(F)F)c2)n1 [Compound 108, methyl (E)-3-(4-(3,5-bis(trifluoromethyl)phenyl)pyrimidin-2-yl)-2-bromoacrylate]	5 to 30 µM	> 30 µM
0.1 to 5 µM	COC(=O)/C(Br)=C/c1cncc(-c2cc(C(F)(F)F)cc(C(F)(F)F)c2)n1 [Compound 115, methyl (Z)-3-(6-(3,5-bis(trifluoromethyl)phenyl)pyrazin-2-yl)-2-bromoacrylate]	0.1 to 5 µM	5 to 30 µM
> 30 µM	NC(=O)/C(=C/c1ccnc(-c2cc(C(F)(F)F)cc(C(F)(F)F)c2)n1)c1ccc2cn[nH]c2c1 [Compound 140, (E)-3-(2-(3,5-bis(trifluoromethyl)phenyl)pyrimidin-4-yl)-2-(1H-indazol-6-yl)acrylamide]	0.1 to 5 µM	> 30 µM
> 30 µM	O=C(O)/C(=C/c1cncc(-c2cc(C(F)(F)F)cc(C(F)(F)F)c2)n1)c1cncnc1 [Compound 117, (E)-3-(6-(3,5-bis(trifluoromethyl)phenyl)pyrazin-2-yl)-2-(pyrimidin-5-yl)acrylic acid]	> 30 µM	> 30 µM
> 30 µM	NC(=O)/C(=C/c1ccnc(-c2cc(C(F)(F)F)cc(C(F)(F)F)c2)n1)c1ccc(S(=O)(=O)N2CC(F)C2)cc1 [Compound 126, (E)-3-(2-(3,5-bis(trifluoromethyl)phenyl)pyrimidin-4-yl)-2-(4-((3-fluoroazetidin-1-yl)sulfonyl)phenyl)acrylamide]	> 30 µM	> 30 µM
> 30 µM	CCOC(=O)/C=C/c1cncc(-c2cc(C(F)(F)F)cc(C(F)(F)F)c2)n1 [Compound 101, ethyl (E)-3-(6-(3,5-bis(trifluoromethyl)phenyl)pyrazin-2-yl)acrylate]	> 30 µM	> 30 µM
> 30 µM	Cc1ccc(F)cc1/C(=C\c1ccnc(-c2cc(C(F)(F)F)cc(C(F)(F)F)c2)n1)C(N)=O [Compound 161, (E)-3-(2-(3,5-bis(trifluoromethyl)phenyl)pyrimidin-4-yl)-2-(5-fluoro-2-methylphenyl)acrylamide]	> 30 µM	> 30 µM
